One may read the inhibition as the share of the control response that was lost under treatment.

Data set [1] relates to uterine growth. Description: Measurement of estrogenic activity (uterine weight). The data set is classed as in vivo. The following applies: rats, oral, such as 0.1 mg/Kg/day for five days; uterine weight/whole body weight×100. On the procedure:
Compounds according to the present invention such as Compound 2 (such as at levels of 0.1 mg/Kg/day for five days) are administered orally to rats with another group of animals receiving vehicle only (propylene glycol). At the end of the study uteri are obtained and weighed with the results being expressed as uterine weight/whole body weight×100.

The target in data set [2] is T1, Rat Liver Sulphatase (Rattus norvegicus, UniProt P15589).
T1 construct: from tissue; host or cells: rat liver after oral dosing
T1 sequence (P15589 20-577): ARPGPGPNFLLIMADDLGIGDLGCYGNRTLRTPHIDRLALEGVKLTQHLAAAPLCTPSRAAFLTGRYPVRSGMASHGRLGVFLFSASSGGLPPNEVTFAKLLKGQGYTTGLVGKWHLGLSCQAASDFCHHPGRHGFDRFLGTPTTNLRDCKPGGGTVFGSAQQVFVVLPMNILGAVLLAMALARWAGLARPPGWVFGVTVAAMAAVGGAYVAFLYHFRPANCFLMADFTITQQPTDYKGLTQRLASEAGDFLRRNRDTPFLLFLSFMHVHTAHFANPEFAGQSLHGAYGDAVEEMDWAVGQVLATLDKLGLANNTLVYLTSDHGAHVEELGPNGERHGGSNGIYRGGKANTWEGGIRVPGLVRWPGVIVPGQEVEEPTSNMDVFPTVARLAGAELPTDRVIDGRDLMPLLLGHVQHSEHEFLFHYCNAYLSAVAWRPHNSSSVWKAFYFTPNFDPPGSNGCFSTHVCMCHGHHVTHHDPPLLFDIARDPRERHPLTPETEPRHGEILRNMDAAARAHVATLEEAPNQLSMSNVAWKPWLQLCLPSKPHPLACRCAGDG
Description: In vivo inhibition (rat liver sulphatase). The following applies: 2 mg/kg/d×5 ol, ORAL DOSE. On the procedure: In Vivo Inhibition (Rat Liver Sulphatase)
99.2±0.42%. @ 2 mg/kg/d×5 ol, ORAL DOSE.

For data set [3], the target named is T2, Steroid sulphatase (Steryl Sulphatase EC 3.1.6.2) (Homo sapiens, UniProt P08842).
T2 construct: endogenous in cells; host or cells: MCF-7 human breast cancer cells
T2 sequence (P08842 22-583): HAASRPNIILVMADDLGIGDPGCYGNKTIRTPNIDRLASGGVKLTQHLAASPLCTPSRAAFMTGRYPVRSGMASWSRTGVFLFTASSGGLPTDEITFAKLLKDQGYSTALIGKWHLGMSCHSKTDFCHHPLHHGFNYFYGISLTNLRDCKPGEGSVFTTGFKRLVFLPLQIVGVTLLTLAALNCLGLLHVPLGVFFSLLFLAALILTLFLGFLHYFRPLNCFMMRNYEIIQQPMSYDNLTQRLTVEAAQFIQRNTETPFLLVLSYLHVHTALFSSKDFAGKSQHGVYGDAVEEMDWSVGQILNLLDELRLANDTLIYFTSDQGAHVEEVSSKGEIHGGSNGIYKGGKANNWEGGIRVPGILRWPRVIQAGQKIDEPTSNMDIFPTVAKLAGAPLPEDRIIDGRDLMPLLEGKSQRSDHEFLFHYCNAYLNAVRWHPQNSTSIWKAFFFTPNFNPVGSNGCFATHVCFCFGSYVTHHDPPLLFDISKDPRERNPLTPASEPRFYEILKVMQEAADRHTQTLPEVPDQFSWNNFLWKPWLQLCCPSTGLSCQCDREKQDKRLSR
Description: Inhibition of steroid sulphatase activity in intact MCF-7 cells. The data set is classed as cell-based. The following applies: MCF7, read-out: % INHIBITION (mean ± S.D., n = 3) MCF-7 cells. How it is done:
(§1) In the examples reference is made to steroid sulphatase inhibition. This is determined according to the teachings of PCT/GB92/01587 wherein the ability of compounds to inhibit oestrone sulphatase activity is assessed using either intact MCF-7 breast cancer cells or placental microsomes. For ease of reference, those teachings are repeated here as Example 1.
Steroid sulphatase (Steroid sulphatase is defined as: Steryl Sulphatase EC 3.1.6.2.) activity was measured in vitro using intact MCF-7 human breast cancer cells. This hormone dependent cell line is widely used to study the control of human breast cancer cell growth. […] Cells were maintained in Minimal Essential Medium (MEM) (Flow Laboratories, Irvine, Scotland) containing 20 mM HEPES, 5% foetal bovine serum, 2 mM glutamine, non-essential amino acids and 0.075% sodium bicarbonate. Up to 30 replicate 25 cm^2 tissue culture flasks were seeded with approximately 1×10^5 cells/flask using the above medium. Cells were grown to 80% confluency and medium was changed every third day.
Intact monolayers of MCF-7 cells in triplicate 25 cm^2 tissue culture flasks were washed with Earle's Balanced Salt Solution (EBSS from ICN Flow, High Wycombe, U.K.) and incubated for 3-4 hours at 37° C. with 5 pmol (7×10^5 dpm) [6,7-^3H]oestrone-3-sulphate (specific activity 60 Ci/mmol from New England Nuclear, Boston, Mass., U.S.A.) in serum-free MEM (2.5 ml) together with oestrone-3-sulphamate (11 concentrations: 0; 1 fM; 0.01 pM; 0.1 pM; 1 pM; 0.01 nM; 0.1 nM; 1 nM; 0.01 mM; 0.1 mM; 1 mM). […] A portion (2 ml) of the organic phase was removed, evaporated and the ^3H and ^14C content of the residue determined by scintillation spectrometry. The mass of oestrone-3-sulphate hydrolysed was calculated from the ^3H counts obtained (corrected for the volumes of the medium and organic phase used, and for recovery of [^14C]oestrone added) and the specific activity of the substrate. […] The number of cell nuclei per flask was determined using a Coulter Counter after treating the cell monolayers with Zaponin. […]

For data set [4], the target named is T3, Steroid sulphatase (oestrone sulphatase) (Homo sapiens, UniProt P08842).
T3 construct: Sulphatase-positive human placenta from normal term pregnancies; from tissue; host or cells: human term placenta (2000 g supernatant / microsomes)
T3 sequence (P08842 22-583): T2 sequence (P08842 22-583)
Description: Inhibition of steroid sulphatase activity in placental microsomes. The data set is classed as biochemical. The following applies: read-out: % INHIBITION (mean ± S.D., n = 3) PLACENTAL MICROSOMES
How it is done: as §1
Sulphatase-positive human placenta from normal term pregnancies (Obstetric Ward, St. Mary's Hospital, London) were thoroughly minced with scissors and washed once with cold phosphate buffer (pH 7.4, 50 mM) then re-suspended in cold phosphate buffer (5 ml/g tissue). Homogenisation was accomplished with an Ultra-Turrax homogeniser, using three 10 second bursts separated by 2 minute cooling periods in ice. Nuclei and cell debris were removed by centrifuging (4° C.) at 2000 g for 30 minutes and portions (2 ml) of the supernatant were stored at −20° C. The protein concentration of the supernatants was determined by the method of Bradford (Anal. Biochem., 72, 248-254 (1976)).
Incubations (1 ml) were carried out using a protein concentration of […], substrate concentration of […] [6,7-^3H]oestrone-3-sulphate (specific activity 60 Ci/mmol from New England Nuclear, Boston, Mass., U.S.A.) and an incubation time of 20 minutes at 37° C. Eight concentrations of the compounds to be tested may be employed: 0 (i.e. control); 0.05 mM; 0.1 mM; 0.2 mM; 0.4 mM; 0.6 mM; 0.8 mM; 1.0 mM. After incubation each sample was cooled and the medium (1 ml) was pipetted into separate tubes containing [^14C]oestrone (7×10^3 dpm) (specific activity 97 Ci/mmol from Amersham International Radiochemical Centre, Amersham, U.K.). The mixture was shaken thoroughly for 30 seconds with toluene (5 ml). […] A portion (2 ml) of the organic phase was removed, evaporated and the ^3H and ^14C content of the residue determined by scintillation spectrometry. The mass of oestrone-3-sulphate hydrolysed was calculated from the ^3H counts obtained (corrected for the volumes of the medium and organic phase used, and for recovery of [^14C]oestrone added) and the specific activity of the substrate.

The conditions of data set [5]: cited from earlier work.
Data set [6] relates to memory. The following applies: rats; cited from earlier work.
Data set [7] deals with T4, E1-STS enzyme (Homo sapiens, UniProt P08842).
T4 sequence (P08842 22-583): T2 sequence (P08842 22-583)
The following applies: cited from earlier work.

Data set [8] addresses T5, rat liver E1-STS (Rattus norvegicus, UniProt P15589).
T5 construct: host or cells: rat liver (in vivo)
T5 sequence (P15589 20-577): T1 sequence (P15589 20-577)
The following applies: administered either orally or subcutaneously; cited from earlier work.

Data set [9] concerns the target T2, Steroid sulphatase (Steryl Sulphatase EC 3.1.6.2). The following applies: 0.1 μM; cited from earlier work.
Data set [10] deals with T6, rat liver DHA-STS (Rattus norvegicus, UniProt P15589).
T6 construct: host or cells: rat liver (in vivo)
T6 sequence (P15589 20-577): T1 sequence (P15589 20-577)
The following applies: administered either orally or subcutaneously; cited from earlier work.

For `C[C@]12CCC3c4ccc(OS(N)(=O)=O)cc4CCC3C1CCC2=NO` (stereo partly shown) [Compound 2, Oestrone Oxime-3-O-sulphamate], in data set [1], the “Estrogenic activity: effect on uterine growth” value was “has an effect on uterine growth”. Moreover, the “In vivo inhibition (rat liver sulphatase)” value in data set [2] is given as 99.2±0.42%. Besides, the inhibition at 0.1 µM in data set [3] (inhibitor concentration 0.1 μM) is 96 ± 1.8%; in data set [4] (inhibitor concentration 0.1 μM) it was 52.3 ± 0.1%. Also, the values for the inhibition at 1 µM in data set [3] (inhibitor concentration 1 μM) and in [4] (inhibitor concentration 1 μM) were 98 ± 0.6% and 89.8 ± 0.2%, respectively. In addition, the inhibition at 10 µM in data set [3] (inhibitor concentration 10 μM) was found to be 99 ± 0.2%; in data set [4] (inhibitor concentration 10 μM), 98.7 ± 0.1%. For the same compound, the inhibition at 0.0001 µM in data set [4] (inhibitor concentration 0.1 nM) came to 2.9 ± 1.1%. Further, the inhibition at 0.001 µM in [4] (inhibitor concentration 1 nM) amounted to 8 ± 3.3%. In data set [4] (inhibitor concentration 10 nM), the inhibition at 0.01 µM came out at 19.3 ± 2.4%.

In the case of `C[C@]12CC[C@@H]3c4ccc(OS(=O)(=O)O)cc4CC[C@H]3[C@@H]1CCC2=O` [Compound E1S, oestrone sulphate], the half-life in blood in data set [5] was 10 to 12 h.

Consider `CC12CCC3c4ccc(OS(N)(=O)=O)cc4CCC3C1CCC2=O` (stereo not shown) [EMATE, oestrone-3-sulphamate], for which the memory enhancing effect entry in data set [6] is recorded as “memory enhancing effect”. In addition, in data set [7], the “mode of inhibition of the E1-STS enzyme” value was “time- and concentration-dependent manner”. Also, the “inhibition of rat liver E1-STS activity” value in data set [8] was 99%. Further, the “inhibition of E1-STS activity in intact MCF-7 cells” value in data set [9] is on record as “more than 99%”. Moreover, in data set [10], the “inhibition of rat liver DHA-STS activity” value is reported as 99%.

On to oestrone-3-N-sulphamate, for which the “mode of inhibition of the E1-STS enzyme” value in data set [7] is “weaker non-time-dependent inactivators”.

With oestrone-3-S-sulphamate, the “mode of inhibition of the E1-STS enzyme” value in [7] was “weaker non-time-dependent inactivators”.

The values are drawn from patent US6670353B2, “Oxime-group containing oestrone sulphatase inhibitors” (Sterix Limited, priority 1997, dated 2003).
